Assay results: US20090270338A1, “DIARYL-CYCLYLALKYL DERIVATIVES AS CALCIUM CHANNEL BLOCKERS” (priority 2008, published 2009)

What was measured:
Human Cav2.2 channels = molecular target: T1, Human Cav2.2 channels (Homo sapiens, UniProt Q00975); test: Fluorescent assay for Cav2.2 channels using potassium depolarization (Table 2, In Vitro Activity, Cav 2.2 Activity); format: cell-based; settings: for IC50: 30 mM K; for inhibition at 10 µM: read-out: % Inh at 10 μM; for inhibition at 30 µM: read-out: % Inh at 30 μM
T1 construct: expressed in transfected cells
T1 sequence (Q00975 whole entry): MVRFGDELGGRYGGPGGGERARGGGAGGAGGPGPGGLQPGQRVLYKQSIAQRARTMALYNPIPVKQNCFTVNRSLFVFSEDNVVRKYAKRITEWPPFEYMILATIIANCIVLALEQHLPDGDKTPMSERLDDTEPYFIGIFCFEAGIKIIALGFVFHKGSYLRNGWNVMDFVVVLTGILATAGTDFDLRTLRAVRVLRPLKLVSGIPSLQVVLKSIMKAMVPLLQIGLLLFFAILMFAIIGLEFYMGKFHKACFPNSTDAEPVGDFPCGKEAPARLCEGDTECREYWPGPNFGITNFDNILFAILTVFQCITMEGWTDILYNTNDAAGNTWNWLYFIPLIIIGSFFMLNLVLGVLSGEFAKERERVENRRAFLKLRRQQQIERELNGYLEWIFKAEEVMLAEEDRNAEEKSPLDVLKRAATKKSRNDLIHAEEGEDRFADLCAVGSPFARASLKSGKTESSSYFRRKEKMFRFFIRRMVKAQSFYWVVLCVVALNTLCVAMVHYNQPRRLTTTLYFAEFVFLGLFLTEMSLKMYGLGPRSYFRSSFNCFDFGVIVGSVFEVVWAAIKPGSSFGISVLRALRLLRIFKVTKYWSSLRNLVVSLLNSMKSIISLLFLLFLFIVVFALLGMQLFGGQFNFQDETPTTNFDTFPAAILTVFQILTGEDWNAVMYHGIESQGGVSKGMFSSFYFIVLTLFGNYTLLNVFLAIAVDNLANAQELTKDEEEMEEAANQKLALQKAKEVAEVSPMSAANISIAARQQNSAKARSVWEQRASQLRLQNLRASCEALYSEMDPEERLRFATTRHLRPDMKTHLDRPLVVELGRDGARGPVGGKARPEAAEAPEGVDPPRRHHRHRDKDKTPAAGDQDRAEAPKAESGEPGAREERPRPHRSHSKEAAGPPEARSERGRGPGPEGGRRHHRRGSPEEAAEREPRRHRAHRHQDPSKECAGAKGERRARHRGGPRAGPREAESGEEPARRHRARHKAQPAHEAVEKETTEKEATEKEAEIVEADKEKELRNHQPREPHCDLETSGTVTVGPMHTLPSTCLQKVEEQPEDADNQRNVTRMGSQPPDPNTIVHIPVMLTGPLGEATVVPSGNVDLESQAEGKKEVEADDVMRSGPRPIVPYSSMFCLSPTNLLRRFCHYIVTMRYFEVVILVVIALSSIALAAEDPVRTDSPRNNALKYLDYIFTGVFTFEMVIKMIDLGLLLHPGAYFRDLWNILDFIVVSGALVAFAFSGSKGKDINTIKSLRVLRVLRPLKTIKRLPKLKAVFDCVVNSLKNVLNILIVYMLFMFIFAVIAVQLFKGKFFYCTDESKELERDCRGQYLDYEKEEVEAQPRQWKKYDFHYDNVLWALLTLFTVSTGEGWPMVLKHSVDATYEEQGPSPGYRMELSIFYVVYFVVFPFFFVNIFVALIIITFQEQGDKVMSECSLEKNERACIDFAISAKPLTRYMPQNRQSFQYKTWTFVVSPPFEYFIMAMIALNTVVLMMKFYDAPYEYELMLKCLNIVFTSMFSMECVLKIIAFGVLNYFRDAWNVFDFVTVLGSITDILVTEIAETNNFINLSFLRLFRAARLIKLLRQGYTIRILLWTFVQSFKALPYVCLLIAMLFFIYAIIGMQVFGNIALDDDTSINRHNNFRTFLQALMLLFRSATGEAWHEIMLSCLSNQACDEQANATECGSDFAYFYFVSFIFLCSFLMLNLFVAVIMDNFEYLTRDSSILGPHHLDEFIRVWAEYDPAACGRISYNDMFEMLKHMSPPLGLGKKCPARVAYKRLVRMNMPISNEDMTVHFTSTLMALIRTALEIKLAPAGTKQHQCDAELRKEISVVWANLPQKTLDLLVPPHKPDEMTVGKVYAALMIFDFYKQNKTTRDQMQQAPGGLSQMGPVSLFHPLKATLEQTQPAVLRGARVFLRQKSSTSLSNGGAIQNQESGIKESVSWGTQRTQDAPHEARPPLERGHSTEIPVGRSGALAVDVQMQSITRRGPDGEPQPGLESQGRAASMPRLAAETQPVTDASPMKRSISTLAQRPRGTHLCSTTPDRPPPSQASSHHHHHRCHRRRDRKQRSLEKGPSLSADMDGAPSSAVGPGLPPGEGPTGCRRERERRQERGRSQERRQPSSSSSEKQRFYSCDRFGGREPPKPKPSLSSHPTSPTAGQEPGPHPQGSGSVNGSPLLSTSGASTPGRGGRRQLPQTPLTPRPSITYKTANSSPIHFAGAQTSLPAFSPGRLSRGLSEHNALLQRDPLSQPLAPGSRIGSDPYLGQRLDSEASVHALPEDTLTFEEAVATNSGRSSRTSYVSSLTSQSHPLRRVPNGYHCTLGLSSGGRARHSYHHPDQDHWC
T1 sequence (P54289 25-1103 partner): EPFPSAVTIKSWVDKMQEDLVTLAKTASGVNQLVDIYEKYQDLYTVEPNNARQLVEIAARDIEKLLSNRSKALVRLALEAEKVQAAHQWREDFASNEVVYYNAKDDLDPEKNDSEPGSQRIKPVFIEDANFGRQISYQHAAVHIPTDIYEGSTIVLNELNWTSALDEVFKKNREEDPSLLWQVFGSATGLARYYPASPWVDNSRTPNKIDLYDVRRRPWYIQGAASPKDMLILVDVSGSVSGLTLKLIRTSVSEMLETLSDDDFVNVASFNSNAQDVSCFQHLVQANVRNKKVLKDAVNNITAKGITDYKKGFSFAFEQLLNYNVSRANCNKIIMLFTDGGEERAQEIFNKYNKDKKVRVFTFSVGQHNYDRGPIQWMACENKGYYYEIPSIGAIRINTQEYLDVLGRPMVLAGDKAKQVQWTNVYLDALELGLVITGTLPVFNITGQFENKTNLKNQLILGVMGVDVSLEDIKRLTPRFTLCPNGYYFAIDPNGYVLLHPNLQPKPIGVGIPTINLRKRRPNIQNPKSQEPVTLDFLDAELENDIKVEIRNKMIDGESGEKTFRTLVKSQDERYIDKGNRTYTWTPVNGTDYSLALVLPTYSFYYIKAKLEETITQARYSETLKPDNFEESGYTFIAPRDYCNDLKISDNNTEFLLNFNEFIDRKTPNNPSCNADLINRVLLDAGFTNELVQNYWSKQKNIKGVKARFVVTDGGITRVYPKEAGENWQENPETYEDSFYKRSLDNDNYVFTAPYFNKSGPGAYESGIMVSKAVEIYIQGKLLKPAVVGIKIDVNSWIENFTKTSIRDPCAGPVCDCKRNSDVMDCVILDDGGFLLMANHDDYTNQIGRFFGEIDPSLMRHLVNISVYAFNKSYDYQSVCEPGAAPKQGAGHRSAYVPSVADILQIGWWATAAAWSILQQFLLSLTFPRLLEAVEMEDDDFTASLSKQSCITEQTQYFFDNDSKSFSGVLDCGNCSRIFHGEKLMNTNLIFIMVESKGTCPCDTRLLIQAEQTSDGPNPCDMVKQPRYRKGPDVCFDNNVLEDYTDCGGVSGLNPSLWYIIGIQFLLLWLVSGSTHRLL
T1 sequence (P54284 whole entry partner): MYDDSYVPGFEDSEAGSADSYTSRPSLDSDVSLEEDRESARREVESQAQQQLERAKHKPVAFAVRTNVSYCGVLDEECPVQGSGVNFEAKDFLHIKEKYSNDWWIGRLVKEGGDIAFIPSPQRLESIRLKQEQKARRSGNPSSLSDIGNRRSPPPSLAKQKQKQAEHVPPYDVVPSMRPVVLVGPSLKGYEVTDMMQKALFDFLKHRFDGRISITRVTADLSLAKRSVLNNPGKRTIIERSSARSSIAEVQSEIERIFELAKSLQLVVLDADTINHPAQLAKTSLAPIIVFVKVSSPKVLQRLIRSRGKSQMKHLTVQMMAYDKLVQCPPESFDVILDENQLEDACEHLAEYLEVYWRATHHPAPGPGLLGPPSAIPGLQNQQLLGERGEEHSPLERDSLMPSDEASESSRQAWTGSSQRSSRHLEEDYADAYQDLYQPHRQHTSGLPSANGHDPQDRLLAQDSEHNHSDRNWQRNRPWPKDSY
Description: Human Cav2.2 channels were stably expressed in HEK293 cells along with alpha2-delta and beta subunits of voltage-gated calcium channels. An inwardly rectifying potassium channel (Kir2.3) was also expressed in these cells to allow more precise control of the cell membrane potential by extracellular potassium concentration. At low bath potassium concentration, the membrane potential is relatively negative, and is depolarized as the bath potassium concentration is raised. In this way, the bath potassium concentration can be used to regulate the voltage-dependent conformations of the channels. Compounds are incubated with cells in the presence of low (4 mM) potassium or elevated (12, 25 or 30 mM) potassium to determine the affinity for compound block of resting (closed) channels at 4 mM potassium or affinity for block of open and inactivated channels at 12, 25 or 30 mM potassium. After the incubation period, Cav2.2 channel opening is triggered by addition of higher concentration of potassium (70 mM final concentration) to further depolarize the cell. The degree of state-dependent block can be estimated from the inhibitory potency of compounds after incubation in different potassium concentrations.
Calcium influx through Cav2.2 channels is determined using a calcium sensitive fluorescent dye in combination with a fluorescent plate reader. Fluorescent changes were measured with either a VIPR (Aurora Instruments) or FLIPR (Molecular Devices) plate reader.
1. Seed cells in Poly-D-Lysine Coated 96 or 384-well plate and keep in a 37° C.-10% CO2 incubator overnight 2. Remove media, wash cells with 0.2 mL (96-well plate) or 0.05 mL (384-well plate) Dulbecco's Phosphate Buffered Saline (D-PBS) with calcium & magnesium (Invitrogen; 14040) 3. Add 0.1 mL (96-well plate) or 0.05 mL (384-well plate) of 4 μM fluor-4 (Molecular Probes; F-14202) and 0.02% Pluronic acid (Molecular Probes; P-3000) prepared in D-PBS with calcium & magnesium (Invitrogen; 14040) supplemented with 10 mM Glucose & 10 mM Hepes/NaOH; pH 7.4 4. Incubate in the dark at 25° C. for 60-70 min 5. Remove dye, wash cells with 0.1 mL (96-well plate) or 0.06 mL (384-well plate) of 4, 12, 25, or 30 mM Potassium Pre-polarization Buffer (PPB) 6. Add 0.1 mL (96-well plate) or 0.03 mL (384-well plate) of 4, 12, 25, 30 mM PPB with or without test compound 7. Incubate in the dark at 25° C. for 30 min 8. Read cell plate on VIPR instrument, Excitation=480 nm, Emission=535 nm 9. With VIPR continuously reading, add 0.1 mL (96-well plate) or 0.03 mL (384-well plate) of Depolarization Buffer (DB), which is 2× the final assay concentration, to the cell plate.

[1] = test system: T-type over L-type channels; settings: cited from earlier work

Row | Compound | % Inh at 10 μM (Human Cav2.2 channels) | % Inh at 30 μM (Human Cav2.2 channels) | IC50 (Human Cav2.2 channels) | inhibition at 10 µM (Human Cav2.2 channels) | inhibition at 30 µM (Human Cav2.2 channels) | fold selective for T-type over L-type channels [1]
1 | 3,3-diphenyl-N-(1-(4-phenylpiperazine- 1-carbonyl)cyclohexyl)propanamide [Compound 5] | 92% | 84% | 0.38 µM | – | – | –
2 | CC(C)(C)N1CCN(C(=O)C2(NC(=O)CC(c3ccccc3)c3ccccc3)CCCCC2)CC1 [Compound 1, N-(1-(4-tert-butylpiperazine-1-carbonyl)cyclohexyl)-3,3-diphenylpropanamide] | – | – | – | 42% | 65% | –
3 | Cc1ccccc1C(CC(=O)NC1(C(=O)N2CCN(C(C)(C)C)CC2)CCCCC1)c1ccccc1C [Compound 2, N-(1-(4-tert-butylpiperazine-1-carbonyl)cyclohexyl)-3,3-dio-tolylpropanamide] | – | – | – | 67% | 92% | –
4 | Cc1ccccc1C(CC(=O)NC1(C(=O)N2CCN(c3ccccc3)CC2)CCCCC1)c1ccccc1C [Compound 3, N-(1-(4-phenylpiperazine-1-carbonyl)cyclohexyl)-3,3-dio-tolylpropanamide] | – | – | 0.44 µM | 95% | 96% | –
5 | O=C(CC(c1ccccc1)c1ccccc1)NC1(C(=O)N2CCN(c3ccccc3)CC2)CCCCC1 [Compound 4, 3,3-diphenyl-N-(1-(4-phenylpiperazine-1-carbonyl)cyclohexyl)propanamide] | – | – | 0.34 µM | 80% | 90% | –
6 | O=C(CC(c1ccccc1)c1ccccc1)NC1(C(=O)NCc2cccc(C(F)(F)F)c2)CCCCC1 [Compound 7, 1-(3,3-diphenylpropanamido)-N-(3-(trifluoromethyl)benzyl)cyclohexanecar-boxamide] | – | – | 0.19 µM | 99% | 102% | –
7 | O=C(CC(c1ccccc1)c1ccccc1)NC1(C(=O)NCc2ccc(F)cc2)CCCCC1 [Compound 8, 1-(3,3-diphenylpropanamido)-N-(4-fluorobenzyl)cyclohexanecarboxamide] | – | – | 0.19 µM | 99% | 102% | –
8 | COc1ccc(CNC(=O)C2(NC(=O)CC(c3ccccc3)c3ccccc3)CCCCC2)cc1 [Compound 9, 1-(3,3-diphenylpropanamido)-N-(4-methoxybenzyl)cyclohexane carboxamide] | – | – | 0.17 µM | 97% | 102% | –
9 | O=C(CC(c1ccccc1)c1ccccc1)NC1(C(=O)NCc2ccc(F)cc2F)CCCCC1 [Compound 10, N-(2,4-difluorobenzyl)-1-(3,3-diphenylpropanamido)cyclohexanecarboxamide] | – | – | 0.43 µM | 96% | 101% | –
10 | O=C(CC(c1ccccc1)c1ccccc1)NC1(C(=O)N2CCN(c3ccc(Cl)cc3)CC2)CCCCC1 [Compound 11, N-(1-(4-(4-chlorophenyl)piperazine-1-carbonyl)cyclohexyl)-3,3-diphenylpropanamide] | – | – | 0.69 µM | 93% | 101% | –
11 | Cc1ccc(N2CCN(C(=O)C3(NC(=O)CC(c4ccccc4)c4ccccc4)CCCCC3)CC2)cc1C [Compound 12, N-(1-(4-(3,4-dimethylphenyl)piperazine-1-carbonyl)cyclohexyl)-3,3-diphenylpropanamide] | – | – | 0.37 µM | 95% | 98% | –
12 | O=C(CC(c1ccccc1)c1ccccc1)NC1(C(=O)N2CCN(c3ccc(C(F)(F)F)cc3)CC2)CCCCC1 [Compound 13, 3,3-diphenyl-N-(1-(4-(4-(trifluoromethyl)phenyl)piperazine-1-carbonyl)cyclohexyl)propanamide] | – | – | 0.59 µM | 96% | 95% | –
13 | O=C(CC(c1ccccc1)c1ccccc1)NC1(C(=O)N2CCN(c3ccc(F)cc3F)CC2)CCCCC1 [Compound 14, N-(1-(4-(2,4-difluorophenyl)piperazine-1-carbonyl)cyclohexyl)-3,3-diphenylpropanamide] | – | – | 0.32 µM | 81% | 86% | –
14 | O=C(CC(c1ccccc1)c1ccccc1)NC1(C(=O)N2CCN(c3cccc(F)c3)CC2)CCCCC1 [Compound 15, N-(1-(4-(3-fluorophenyl)piperazine-1-carbonyl)cyclohexyl)-3,3-diphenylpropanamide] | – | – | 0.33 µM | 72% | 81% | –
15 | Cc1ccnc(N2CCN(C(=O)C3(NC(=O)CC(c4ccccc4)c4ccccc4)CCCCC3)CC2)c1 [Compound 16, N-(1-(4-(4-methylpyridin-2-yl)piperazine-1-carbonyl)cyclohexyl)-3,3-diphenylpropanamide] | – | – | 2.75 µM | 81% | 85% | –
16 | CS(=O)(=O)c1ccc(CNC(=O)C2(NC(=O)CC(c3ccccc3)c3ccccc3)CCCCC2)cc1 [Compound 17, 1-(3,3-diphenylpropanamido)-N-(4-(methylsulfonyl)benzyl)cyclohexane carboxamide] | – | – | – | 86% | 96% | –
17 | O=C(CC(c1ccccc1)c1ccccc1)NC1(C(=O)NCc2ccc(O)cc2)CCCCC1 [Compound 18, 1-(3,3-diphenylpropanamido)-N-(4-hydroxybenzyl)cyclohexane carboxamide] | – | – | – | 87% | 97% | –
18 | Cc1cnc(CNC(=O)C2(NC(=O)CC(c3ccccc3)c3ccccc3)CCCCC2)cn1 [Compound 19, 1-(3,3-diphenylpropanamido)-N-((5-methylpyrazin-2-yl)methyl)cyclohexanecarboxamide] | – | – | – | 62% | 93% | –
19 | Cc1cc(CNC(=O)C2(NC(=O)CC(c3ccccc3)c3ccccc3)CCCCC2)no1 [Compound 20, 1-(3,3-diphenylpropanamido)-N-((5-methylisoxazol-3-yl)methyl)cyclohexanecarboxamide] | – | – | – | 71% | 86% | –
20 | Cc1cnccc1CNC(=O)C1(NC(=O)CC(c2ccccc2)c2ccccc2)CCCCC1 [Compound 21, 1-(3,3-diphenylpropanamido)-N-((3-methylpyridin-4-yl)methyl)cyclohexanecarboxamide] | – | – | – | 14% | 51% | –
21 | O=C(CC(c1ccccc1)c1ccccc1)NC1(C(=O)NCc2nccs2)CCCCC1 [Compound 22, 1-(3,3-diphenylpropanamido)-N-(thiazol-2-ylmethyl)cyclohexane carboxamide] | – | – | – | 55% | 77% | –
22 | Cc1cccnc1CNC(=O)C1(NC(=O)CC(c2ccccc2)c2ccccc2)CCCCC1 [Compound 23, 1-(3,3-diphenylpropanamido)-N-((3-methylpyridin-2-yl)methyl)cyclohexanecarboxamide] | – | – | – | 81% | 88% | –
23 | COCC(=O)O[C@]1(CCN(C)CCCc2nc3ccccc3[nH]2)CCc2cc(F)ccc2[C@@H]1C(C)C [Mibefradil] | – | – | – | – | – | 10-30 fold
24 | N-(1-(4-(4-fluorophenyl)piperazine-1- carbonyl)cyclohexyl)-3,3- diphenylpropanamide [Compound 6] | 99% | 100% | 0.28 µM | – | – | –
